# Counter-ions that a name gives are not always drawn.
# Tests used:
# patients = conditions: anesthetic induction doses of propofol; Bryson et al.; cited from earlier work
# healthy subjects [1] = assay: Single bolus AQUAVAN vs equipotent rapid infusion of propofol: anesthetic effect (BIS, LOC, ROC, DOU), adverse events; format: in vivo, human; conditions: for Pain on injection, incidence / Apnea, incidence / Initial increase in heart rate (HR>90 bpm), incidence: 24 subjects; for Pain on injection, incidence: all cohorts; for Apnea, incidence: dose-dependent; for Initial increase in heart rate (HR>90 bpm), incidence: following administration; for Initial increase in heart rate (HR>90 bpm), incidence / Time of BISpeak (lowest BIS level): p<0.05; for Time of BISpeak (lowest BIS level): AQUAVAN bolus 5-25 mg/kg, propofol rapid infusion 300 ml/h to similar BISpeak; for DOU (duration of unconsciousness) / Time to LOC / Time to ROC: n=6, mean ± SD
# Experimental: This example compares the pharmacodynamics of propofol when administered as a single, bolus dose of the prodrug O-phosphonooxymethyl-propofol di-sodium salt (AQUAVAN™) in accordance with the present invention, to the pharmacodynamics of propofol when administered as such. A sterile solution, the “study formulation,” was prepared in a 20 mL vial, with 20 mg/mL of AQUAVAN™ and 0.4 wt % NaCl. The pH of the solution was adjusted to 8.6±0.4 with HCl or NaOH, as needed.
# (§1) Twenty-four healthy subjects (all ASA 1, 25±5 yrs., 70±8 kg) were randomized into 4 cohorts, with 3 male and 3 female in each. Each of the four cohorts was given a single dose of the study formulation described in Table 1 above (5, 10, 20, and 25 mg/kg, AQUAVAN™ respectively). Anesthetic effect was measured continuously using a BIS-XP monitor (Aspect Medical Systems, Natick, Mass.). The lowest BIS level (BISpeak) was recorded. One week later, propofol was given to the same individuals at a rapid infusion rate of 300 ml/h to reach a similar BISpeak. Heart rate (HR), O2 saturation, systolic (SBP) and diastolic (DBP) blood pressure were monitored non-invasively. Incidence and duration of apnea, loss (LOC) and return (ROC) of consciousness and duration of unconsciousness (DOU) were measured with the OAA/S score. Adverse events were recorded. Statistical analysis was performed using Wilcoxon Signed Ranks Test, Mann-Whitney-U test, Chi-Square test and Pearson correlation where appropriate.
# healthy male volunteers = assay: Target controlled infusion (TCI) of AQUAVAN vs propofol: EEG, loss/recovery of consciousness and corneal reflex; format: in vivo, human; conditions: for Time to LOCR (loss of corneal reflex) / Time to ROC (recovery of consciousness) / Time to ROCR (recovery of corneal reflex) / Time to LOC (loss of consciousness): TCI infusion 60 min, propofol targets 5, 3, 1.5 micrograms/ml; for Time to LOC (loss of consciousness): time after start of infusion
# Experimental: This example compares the effects of target controlled infusions (TCI) of propofol and of O-phosphonooxymethyl propofol disodium salt (AQUAVAN™) on electrical brain activity and consciousness of healthy male volunteers. A sterile solution was prepared in a 20 mL vial, with 20 mg/mL of AQUAVAN™ and 0.4 wt % NaCl. The pH of the solution was adjusted to 8.6±0.4 with HCl or NaOH, as needed.
# Nine male volunteers (age 19 to 35 yrs., body wt. 70 to 86 kg) received propofol as a target controlled infusion (TCI) with three different target concentrations over 60 min. After a washout period of 14 days, the same volunteers received a TCI infusion of AQUAVAN™ with identical propofol target concentrations (crossover design). The infusion scheme was a linear increasing propofol concentration up to 5 micrograms/ml for the first 20 minutes, a target of 3 micrograms/ml for the following 20 minutes, and a target propofol plasma concentration of 1.5 micrograms/ml for the following 20 minutes. At 60 minutes, the infusion was stopped.
# The EEG was recorded using the CATEEM® system and the data analysis was based on the lead O1-CZ. All subjects were tested every 1.5 minutes for Loss and Recovery of Consciousness (LOC and ROC), and for Loss and Recovery of Corneal Reflex (LOCR and ROCR). Arterial blood samples were drawn at predetermined times up to 240 minutes after start of the infusion. The AQUAVAN™ and propofol plasma concentrations were measured with an LC/MS/MS validated assay and an HPLC-FL validated assay (see FIG. 1).
# healthy volunteers = assay: TCI infusion of AQUAVAN over 2 hours: alertness/sedation (OAA/S, BIS), haemodynamics, propofol plasma concentration
# Experimental: A sterile solution of AQUAVAN™ was prepared as described for Example 1, above.
# Six female (28±3 yrs, 57±4 kg body weight) and 6 male (32±6 yrs., 78±9 kg body weight) volunteers were studied. For a period of 2 hours, a TCI infusion of AQUAVAN™ was administered to provide adequate sedation. The initially selected target concentration of propofol from AQUAVAN™ was 1.8 μg/ml. Sedation was rated as adequate if according to a modified Observers Assessment of Alertness and Sedation Scale (OAA/S) the OAA/S scale value was 2 to 3. After 60 minutes, the target concentration was increased to 2.4 or 3 μg/ml if the OAA/S scale value was 4 or 5, respectively, or reduced to 1.4 μg/ml if the OAA/S scale value was 0 to 1. With an Aspect® A-1000 monitor and two frontal leads the BIS values were recorded. The ECG, blood pressure, heart rate, SaO2 and GPI as well as propofol plasma concentrations were measured. All values are given as mean±standard deviation.
# healthy subjects [2] = assay: Single bolus AQUAVAN, six cohorts: lowest OAA/S score and duration of sedation; format: in vivo, human
# Experimental: as §1
# In addition to induction of unconsciousness and duration of general anesthesia (see above), the response of the study subjects to AQUAVAN™ was also examined with regard to sedation. For this purpose, two additional cohorts (n=6 each) were dosed with 15 and 30 mg/kg of AQUAVAN™ as described above. For subjects in all six cohorts, the lowest OAA/S score achieved after AQUAVAN™ administration and the duration of sedation were recorded, with an OAA/S score of 5 indicating no sedation, scores ranging from 4-2 indicating increasingly deep sedated states, and a score of 1 indicating loss of consciousness (LOC)(but allowing for an undirected response to painful tactile stimuli). […] A conscious sedated state typically preceded and followed a period of unconsciousness in subjects who reached LOC. “Mean duration of sedation/LOC” in Table 4 refers to the total time interval from onset of sedation through LOC to recovery of alertness (no sedation).
# [3] = Cohort 3 (20 mg/kg AQUAVAN bolus; propofol rapid infusion to similar BISpeak)
# [4] = Cohort 4 (25 mg/kg AQUAVAN bolus; propofol rapid infusion to similar BISpeak)
smiles,measurement,setting,value
"CC(C)c1cccc(C(C)C)c1O [propofol, 2,6-diisopropylphenol]","Respiratory consequences, including reduction in tidal volume and apnea: share of patients",patients,up to 83%
same,"Pain on injection, incidence",healthy subjects [1],10 of the 24
same,"Apnea, incidence",healthy subjects [1],10 of 24
same,"Initial increase in heart rate (HR>90 bpm), incidence",healthy subjects [1],4 of the 24
same,Time of BISpeak (lowest BIS level),healthy subjects [1],358 ± 315 s
same,DOU (duration of unconsciousness),healthy subjects [1]; [3],416 ± 94 s
same,Time to LOC,healthy subjects [1]; [3],184 ± 63 s
same,Time to ROC,healthy subjects [1]; [3],600 ± 105 s
same,DOU (duration of unconsciousness),healthy subjects [1]; [4],748 ± 245 s
same,Time to LOC,healthy subjects [1]; [4],208 ± 84 s
same,Time to ROC,healthy subjects [1]; [4],956 ± 294 s
same,Time to LOCR (loss of corneal reflex),healthy male volunteers,19 ± 6 min
same,Time to ROC (recovery of consciousness),healthy male volunteers,47 ± 10 min
same,Time to ROCR (recovery of corneal reflex),healthy male volunteers,32 ± 10 min
same,Time to LOC (loss of consciousness),healthy male volunteers,13 ± 2 min
"CC(C)c1cccc(C(C)C)c1OCOP(=O)(O)O [AQUAVAN, O-phosphonooxymethyl propofol disodium salt]",Loss of consciousness (LOC) reached,healthy subjects [1]; 5 mg/kg single bolus cohort,no LOC was reached
same,Loss of consciousness (LOC) reached,healthy subjects [1]; 10 mg/kg single bolus cohort,no LOC was reached
same,Loss of consciousness (LOC) reached,healthy subjects [1]; 20 mg/kg single bolus cohort,all subjects reached LOC
same,Loss of consciousness (LOC) reached,healthy subjects [1]; 25 mg/kg single bolus cohort,all subjects reached LOC
same,"Pain on injection, incidence",healthy subjects [1],only reported for propofol
same,"Apnea, incidence",healthy subjects [1],7 of 24
same,"Initial increase in heart rate (HR>90 bpm), incidence",healthy subjects [1],17 of the 24
same,Time of BISpeak (lowest BIS level),healthy subjects [1],630 ± 225 s
same,DOU (duration of unconsciousness),healthy subjects [1]; [3],1507 ± 914 s
same,Time to LOC,healthy subjects [1]; [3],157 ± 69 s
same,Time to ROC,healthy subjects [1]; [3],1664 ± 920 s
same,DOU (duration of unconsciousness),healthy subjects [1]; [4],2703 ± 267 s
same,Time to LOC,healthy subjects [1]; [4],162 ± 40 s
same,Time to ROC,healthy subjects [1]; [4],2865 ± 245 s
same,OAA/S scale value after 60 minutes,"healthy volunteers; TCI infusion, initial propofol target 1.8 μg/ml, mean±SD",3.7±1.1
same,Time after stopping the infusion to recovery to OAA/S scale value of 5,"healthy volunteers; after 2 hour TCI infusion, mean±SD",18 ± 3 min
same,Systolic BP after decrease,healthy volunteers; decreased from 134±14,106±10 mm Hg
same,BIS value,healthy volunteers; during the first hour of infusion (96±2 before infusion),74±13
same,BIS value,healthy volunteers; during the second hour of infusion,64±14
same,Heart rate increase,healthy volunteers; from 64±14 to 72±8,13%
same,Systolic BP decrease,healthy volunteers; from 134±14 to 106±10 mm Hg,21%
same,Heart rate after increase,healthy volunteers; increased from 64±14,72±8
same,Time after TCI target change until OAA/S scale value in target range of 2 to 3,"healthy volunteers; target changed at 60 minutes, mean±SD",4.2 ± 2.5 min
same,Time to LOCR (loss of corneal reflex),healthy male volunteers,16 ± 5 min
same,Time to ROC (recovery of consciousness),healthy male volunteers,73 ± 13 min
same,Time to ROCR (recovery of corneal reflex),healthy male volunteers,46 ± 15 min
same,Time to LOC (loss of consciousness),healthy male volunteers,9 ± 2 min
same,Decrease of Median Power Frequency (MPF) in the EEG,"healthy male volunteers; plasma propofol from AQUAVAN compared to plasma propofol from propofol, comparable plasma concentrations",greater decrease of the MPF
same,Duration - range,healthy subjects [2]; Cohort 1: 5 mg/kg bolus,0 to 16 min
same,Mean duration of sedation/LOC,healthy subjects [2]; Cohort 1: 5 mg/kg bolus,4.2 min
same,Duration - range,healthy subjects [2]; Cohort 2: 10 mg/kg bolus,0 to 24 min
same,Mean duration of sedation/LOC,healthy subjects [2]; Cohort 2: 10 mg/kg bolus,14 min
same,Duration - range,healthy subjects [2]; Cohort 3: 20 mg/kg bolus,22 to 45 min
same,Mean duration of sedation/LOC,healthy subjects [2]; Cohort 3: 20 mg/kg bolus,39.5 min
same,Duration - range,healthy subjects [2]; Cohort 4: 25 mg/kg bolus,42 to 78 min
same,Mean duration of sedation/LOC,healthy subjects [2]; Cohort 4: 25 mg/kg bolus,57.8 min
same,Duration - range,healthy subjects [2]; Cohort 5: 15 mg/kg bolus,18 to 34 min
same,Lowest OAA/S Score (subjects - score),healthy subjects [2]; Cohort 5: 15 mg/kg bolus,6/6 - 1 (LOC)
same,Mean duration of sedation/LOC,healthy subjects [2]; Cohort 5: 15 mg/kg bolus,22.6 min
same,Duration - range,healthy subjects [2]; Cohort 6: 30 mg/kg bolus,43 to 96 min
same,Mean duration of sedation/LOC,healthy subjects [2]; Cohort 6: 30 mg/kg bolus,54.3 min
same,State observed after bolus,healthy subjects [2]; bolus doses of 15 mg/kg and higher,induced unconscious states that varied in duration
same,State observed after bolus,healthy subjects [2]; dose ranges of 5-10 mg/kg,"Conscious sedation, but no loss of consciousness"
